Structures can show the parent of a compound that is named as a salt. Where two headings read alike, the source gives them in different places.

Data set [1] is described as follows: Compatibility with HPMCP HP-50 by residual content (% assay) after storage. It is filed as physicochemical. On the procedure: In comparison, duloxetine crude materials and granulated duloxetine particles having similar size obtained by the conventional wet granulation were also assayed. The granulated duloxetine particles were granulated by the same second solvent (e.g., acetonitrile), which was used in the process of spherical agglomeration, and dried at 50° C. until LOD<1%. An enteric material, hypromellose phthalate (HPMCP) HP-50, which is known to cause degradation of duloxetine, was used in this test.
FIGS. 4A-D are electronic microscopic diagram of duloxetine in different states. […] In Table 7, “C” refers to crude material. “SA” refers to spherical agglomerates. “G” refers to granulated duloxetine particles.

The conditions of data set [2]: pH 6.8 PBS 500 mL, basket 100 rpm, 37° C.

Take `CNCC[C@H](Oc1cccc2ccccc12)c1cccs1` [Crude, duloxetine hydrochloride]: the “% Assay (residual content)” value in data set [1] worked out at 98.39%. Besides, the “Duloxetine Release (%)” value in data set [2] (3 min) was found to be 89.3%; in data set [2] (6 min) it was 95.8%; in data set [2] (9 min), 97.5%; in data set [2] (12 min), 98.4%; in data set [2] (15 min), 98.8%; in data set [2] (18 min), 99.1%. Moreover, the entries for the “Duloxetine Release (%)” value in data set [2] (21 min), in data set [2] (30 min) and in data set [2] (60 min) were 99.4%, 99.9% and 100.9%, respectively.

Source of the values: patent publication US9833436B2, “Method of preparing drug agglomerate” (PharmaDax Inc., priority 2014, dated 2017).
